Laboratory results from patent US9783537B2, “3-(4-ethylnylphenyl) pyridopyrimidinone compounds and process for preparation thereof useful as potential anticancer agents” (Council of Scientific & Industrial Research, priority 2013, dated 2017).
Where two headings read alike, the source gives them in different places.

How the values were obtained:
[1] = system: HL-60(TB); experiment: SRB 48 h growth assay, Leukemia HL-60(TB); format: cell-based, human
[2] = system: K-562; experiment: SRB 48 h growth assay, Leukemia K-562; format: cell-based, human
[3] = system: RPMI-8226; experiment: SRB 48 h growth assay, Leukemia RPMI-8226; format: cell-based, human; conditions: RPMI-8226, Leukemia
[4] = system: A549/ATCC; experiment: SRB 48 h growth assay, Non-small Cell Lung A549/ATCC; format: cell-based, human
[5] = system: NCI-H226; experiment: SRB 48 h growth assay, Non-small Cell Lung NCI-H226; format: cell-based, human; conditions: for GI50: Homo sapiens
[6] = system: NCI-H522; experiment: SRB 48 h growth assay, Non-small Cell Lung NCI-H522; format: cell-based, human
[7] = system: SW-620; experiment: SRB 48 h growth assay, Colon SW-620; format: cell-based, human; conditions: SW-620, Colon
[8] = system: SNB-75; experiment: SRB 48 h growth assay, CNS SNB-75; format: cell-based, human; conditions: SNB-75, CNS
[9] = system: LOX IMVI; experiment: SRB 48 h growth assay, Melanoma LOX IMVI; format: cell-based, human
[10] = system: M14; experiment: SRB 48 h growth assay, Melanoma M14; format: cell-based, human
[11] = system: MDA-MB-435; experiment: SRB 48 h growth assay, Melanoma MDA-MB-435; format: cell-based, human; conditions: MDA-MB-435, Melanoma
[12] = system: SK-MEL-5; experiment: SRB 48 h growth assay, Melanoma SK-MEL-5; format: cell-based, human; conditions: SK-MEL-5, Melanoma
[13] = system: UACC-62; experiment: SRB 48 h growth assay, Melanoma UACC-62; format: cell-based, human; conditions: UACC-62, Melanoma
[14] = system: SK-OV-3; experiment: SRB 48 h growth assay, Ovarian SK-OV-3; format: cell-based, human; conditions: SK-OV-3, Ovarian
[15] = system: ACHN; experiment: SRB 48 h growth assay, Renal ACHN; format: cell-based, human
[16] = system: TK-10; experiment: SRB 48 h growth assay, Renal TK-10; format: cell-based, human; conditions: TK-10, Renal
[17] = system: PC-3; experiment: SRB 48 h growth assay, Prostate PC-3; format: cell-based, human; conditions: PC-3, Prostate
[18] = system: DU-145; experiment: SRB 48 h growth assay, Prostate DU-145; format: cell-based, human; conditions: DU-145, Prostate
[19] = system: MCF7; experiment: SRB 48 h growth assay, Breast MCF7; format: cell-based, human
[20] = system: MDA-MB-231/ATCC; experiment: SRB 48 h growth assay, Breast MDA-MB-231/ATCC; format: cell-based, human
[21] = system: BT-549; experiment: SRB 48 h growth assay, Breast BT-549; format: cell-based, human; conditions: BT-549, Breast
[22] = system: MDA-MB-468; experiment: SRB 48 h growth assay, Breast MDA-MB-468; format: cell-based, human; conditions: MDA-MB-468, Breast
[23] = system: six leukemia cancer cell lines (CCRF-CEM, HL-60, K-562, MOLT-4, SR and RPMI-8226); experiment: in vitro anticancer activity, leukemia panel; format: cell-based; conditions: Homo sapiens, exposure at least 48 h, read-out: GI50, range over panel
[24] = system: seven colon cancer cell line (COLO 205, HCC-2998, HCT-116, HCT-15, HT29, KM12 and SW-620); experiment: in vitro anticancer activity, colon panel; format: cell-based; conditions: Homo sapiens; seven colon cancer cell lines, exposure at least 48 h; read-out: GI50, range over panel
[25] = system: six CNS cancer cell line (SF-268, SF-295, SF-539, SNB-19, SNB-75 and U251); experiment: in vitro anticancer activity, CNS panel; format: cell-based; conditions: Homo sapiens; six CNS cancer cell lines, exposure at least 48 h; read-out: GI50, range over panel
[26] = in vitro anticancer activity, melanoma panel; format: cell-based; conditions: Homo sapiens; nine melanoma cell lines, exposure at least 48 h; read-out: GI50, range over panel
[27] = Homo sapiens, read-out: Growth Inhibition GI50
[28] = Homo sapiens, read-out: Log10 GI50 (converted)
[29] = Homo sapiens, read-out: Log10 LC50 (converted)

C#Cc1ccc(-n2c(/C=C/c3cc(OC)c(OC)c(OC)c3)nc3ncccc3c2=O)cc1 [4q, (E)-3-(4-Ethynylphenyl)-2-(3,4,5-trimethoxystyryl)pyrido[2,3-d]pyrimidin-4(3H)-one]
Log10 TGI50 [1]: −4.59 | GI50 [1, 27]: 3.84 µM | GI50 [1, 28]: 3.8 µM | CC50 [1, 29]: > 100 µM | GI50 ([2]; Homo sapiens, K562, K-562, Leukemia, read-out: Growth Inhibition GI50): 3.83 µM | GI50 ([2]; Homo sapiens, K562, K-562, Leukemia, read-out: Log10 GI50 (converted)): 3.8 µM | CC50 ([2]; Homo sapiens, K562, K-562, Leukemia, read-out: Log10 LC50 (converted)): > 100 µM | Log10 TGI50 ([2]; K-562, Leukemia): >−4.00 | GI50 [3, 27]: 3.6 µM | GI50 [3, 28]: 3.63 µM | CC50 [3, 29]: > 100 µM | Log10 TGI50 [3]: >−4.00 | Log10 TGI50 [4]: >−4.00 | GI50 [4, 27]: 5.65 µM | GI50 [4, 28]: 5.62 µM | CC50 [4, 29]: > 100 µM | Log10 TGI50 [5]: >−4.00 | GI50 ([5]; read-out: Growth Inhibition GI50): 12.9 µM | GI50 ([5]; read-out: Log10 GI50 (converted)): 12.9 µM | Log10 TGI50 [6]: −5.20 | GI50 [6, 27]: 2.33 µM | GI50 [6, 28]: 2.34 µM | CC50 [6, 29]: 66.1 µM | GI50 [7, 27]: 3.29 µM | GI50 [7, 28]: 3.31 µM | CC50 [7, 29]: > 100 µM | Log10 TGI50 [7]: −4.30 | GI50 [8, 27]: 3.88 µM | GI50 [8, 28]: 3.89 µM | CC50 [8, 29]: > 100 µM | Log10 TGI50 [8]: >−4.00 | Log10 TGI50 [9]: −4.19 | GI50 [9, 27]: 4.61 µM | GI50 [9, 28]: 4.57 µM | CC50 [9, 29]: > 100 µM | Log10 TGI50 [10]: ->−4.00 | GI50 [10, 27]: 4.93 µM | GI50 [10, 28]: 4.9 µM | CC50 [10, 29]: > 100 µM | GI50 [11, 27]: 1.98 µM | GI50 [11, 28]: 2 µM | CC50 [11, 29]: 97.7 µM | Log10 TGI50 [11]: −5.27 | GI50 [12, 27]: 1.78 µM | GI50 [12, 28]: 1.78 µM | CC50 [12, 29]: 18.2 µM | Log10 TGI50 [12]: −5.36 | GI50 [13, 27]: 6.9 µM | GI50 [13, 28]: 6.92 µM | CC50 [13, 29]: > 100 µM | Log10 TGI50 [13]: >−4.00 | GI50 [14, 27]: 5.33 µM | GI50 [14, 28]: 5.37 µM | CC50 [14, 29]: > 100 µM | Log10 TGI50 [14]: −4.11 | Log10 TGI50 [15]: >−4.00 | GI50 [15, 27]: 6.63 µM | GI50 [15, 28]: 6.61 µM | CC50 [15, 29]: > 100 µM | GI50 [16, 27]: 17.3 µM | GI50 [16, 28]: 17.4 µM | CC50 [16, 29]: > 100 µM | Log10 TGI50 [16]: −4.20 | GI50 [17, 27]: 3.96 µM | GI50 [17, 28]: 3.98 µM | CC50 [17, 29]: > 100 µM | Log10 TGI50 [17]: >−4.00 | Log10 TGI50 [18]: >−4.00 | GI50 [18, 27]: 5.36 µM | GI50 [18, 28]: 5.37 µM | CC50 [18, 29]: > 100 µM | Log10 TGI50 [19]: >−4.00 | GI50 [19, 27]: 3.17 µM | GI50 [19, 28]: 3.16 µM | CC50 [19, 29]: > 100 µM | Log10 TGI50 [20]: >−4.00 | GI50 [20, 27]: 5.53 µM | GI50 [20, 28]: 5.5 µM | CC50 [20, 29]: > 100 µM | Log10 TGI50 [21]: −5.00 | GI50 [21, 27]: 2.99 µM | GI50 [21, 28]: 3.02 µM | CC50 [21, 29]: > 100 µM | GI50 [22, 27]: 2.83 µM | GI50 [22, 28]: 2.82 µM | CC50 [22, 29]: > 100 µM | Log10 TGI50 [22]: >−4.00 | GI50 [23]: 1.39 to 3.01 µM | GI50 [24]: 1.64 to 2.23 µM | GI50 [25]: 1.67 to 2.27 µM | GI50 [26]: 1.49 to 2.27 µM
